Source: US9169241B2, “Quinolinyloxyphenylsulfonamides” (Max-Planck-Gesellschaft Zur Forderung der Wissenschaften …, priority 2009, dated 2015)

Legend:
[1] = target: T1, wild type AXL (wtAXL) receptor tyrosine kinase (Homo sapiens, UniProt P30530); experiment: NIH-3T3-AXL cellular kinase assay (pY-AXL-ELISA); format: cell-based; settings: NIH-3T3-AXL (clone 22) cells, serum depleted, compounds 1 h; Table Ia
T1 construct: WtAXL cDNA was cloned into vector pLXSN(ESK) and transfected into Phoenix E packaging cells; expressed in transfected cells; host or cells: NIH3T3 N7 (mouse fibroblasts), retrovirally infected, clone 22
T1 sequence (P30530 26-894): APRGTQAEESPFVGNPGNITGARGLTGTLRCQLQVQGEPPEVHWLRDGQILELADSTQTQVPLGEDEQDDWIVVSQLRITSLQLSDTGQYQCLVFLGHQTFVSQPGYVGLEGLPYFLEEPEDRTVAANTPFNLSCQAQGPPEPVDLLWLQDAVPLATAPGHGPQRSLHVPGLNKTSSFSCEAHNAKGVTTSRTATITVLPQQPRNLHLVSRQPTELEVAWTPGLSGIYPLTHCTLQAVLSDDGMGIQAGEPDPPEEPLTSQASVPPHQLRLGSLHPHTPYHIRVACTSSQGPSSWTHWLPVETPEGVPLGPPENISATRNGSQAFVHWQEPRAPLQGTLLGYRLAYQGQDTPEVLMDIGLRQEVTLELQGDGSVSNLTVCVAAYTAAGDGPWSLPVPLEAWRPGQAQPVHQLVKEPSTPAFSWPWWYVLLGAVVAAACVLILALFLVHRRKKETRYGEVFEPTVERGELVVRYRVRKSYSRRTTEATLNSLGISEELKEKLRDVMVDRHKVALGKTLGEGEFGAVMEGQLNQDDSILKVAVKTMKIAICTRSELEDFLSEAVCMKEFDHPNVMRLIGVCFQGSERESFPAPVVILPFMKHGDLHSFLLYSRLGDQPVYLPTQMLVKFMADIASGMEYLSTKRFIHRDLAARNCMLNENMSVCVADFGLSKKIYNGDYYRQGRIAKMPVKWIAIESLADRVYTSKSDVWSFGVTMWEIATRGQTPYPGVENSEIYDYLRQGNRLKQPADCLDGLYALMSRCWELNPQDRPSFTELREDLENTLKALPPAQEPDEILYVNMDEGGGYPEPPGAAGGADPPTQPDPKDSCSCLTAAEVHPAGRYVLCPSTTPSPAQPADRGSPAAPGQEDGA
Outline: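 NIH3T3 cells stably expressing human wild-type AXL (retroviral, puromycin-selected clones) were treated with serial compound dilutions for 1 h and lysed. AXL tyrosine phosphorylation was measured by ELISA on the lysates: biotinylated 4G10 anti-phosphotyrosine, streptavidin-alkaline phosphatase, AttoPhos fluorescence at 430/560 nm after 90 min.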

Hs578T [2] = experiment: Matrigel outgrowth assay/branching assay; format: cell-based; settings: Homo sapiens, Hs-578T; HS578T cell line; Table Ib; read-out: Total branching inhibition in Matrigel HS578T
Outline: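 Step one: Matrigel (3 mg/ml) is set for 1 h at 37° C. Step two: 5000 cells per well go on in medium with compound (0.78–3.125 μM) or DMSO. Step three: images at 48, 72 and 96 h are scored for complete loss of branching.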

Hs578T [3] = experiment: Cell vitality assay (ATP assay, CellTiter-Glo); format: cell-based; settings: Homo sapiens, Hs-578T; HS578T cell line, 72 h; Table Ib; read-out: IC50 ATP-Assay HS578T after 72 h
Outline: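 1000 cells/well were exposed to compound at 12.5 μM down to 0.195 μM (twofold steps) or DMSO for 72 h. ATP was then measured by luminescence after 10 min reagent lysis at room temperature. IC50 was taken as the concentration giving 50% of the DMSO-control ATP level.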

Hs578T [4] = experiment: Wound healing migration assay; format: cell-based; settings: Homo sapiens, Hs-578T; HS578T cell line; Table Ib
Outline: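 Cells seeded at 150000/24 well, grown to monolayer overnight, scratched with a pipette tip, then treated with compound at 12.5, 6.25 or 3.125 μM versus DMSO. Stopped by crystal violet fixation at 48-72 h once control wounds closed; IC50 taken as 50% wound size between t0 and t48 or t72.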

Compound	IC50 [1] [µM]	IC50 (Hs578T [2]) [µM]	IC50 (Hs578T [3]) [µM]	melting point [°C]	IC50 (Hs578T [4]) [µM]
COc1cc2c(Oc3cc(NS(=O)(=O)c4cc(Cl)ccc4Cl)ccc3F)ccnc2cc1OCCCN1CCC(C)CC1 [Example 191, 2,5-Dichloro-N-(4-fluoro-3-{6-methoxy-7-[3-(4-methyl-piperidin-1-yl)-propoxy]-quinolin-4-yloxy}-phenyl)-benzenesulfonamide]	0.5 to 3	10 to 25	≤ 12.5	127 to 130	≤ 12.5
COc1cc2c(Oc3ccc(Cl)c(NS(=O)(=O)c4cc(F)ccc4F)c3)ccnc2cc1OCCCN1CCC(C)CC1 [Example 193, N-(2-Chloro-5-{6-methoxy-7-[3-(4-methyl-piperidin-1-yl)-propoxy]-quinolin-4-yloxy}-phenyl)-2,5-difluoro-benzenesulfonamide]	0.5 to 3	10 to 25	12.5 to 50	206 to 208	≤ 12.5
COc1cc2c(Oc3ccc(Cl)c(NS(=O)(=O)c4c(F)cccc4F)c3)ccnc2cc1OCCCN1CCC(C)CC1 [Example 194, N-(2-Chloro-5-{6-methoxy-7-[3-(4-methyl-piperidin-1-yl)-propoxy]-quinolin-4-yloxy}-phenyl)-2,6-difluoro-benzenesulfonamide]	0.5 to 3	10 to 25	12.5 to 50	222 to 226	12.5 to 50
COc1cc2c(Oc3ccc(Cl)c(NS(=O)(=O)c4cc(Cl)ccc4Cl)c3)ccnc2cc1OCCCN1CCC(C)CC1 [Example 197, 2,5-Dichloro-N-(2-chloro-5-{6-methoxy-7-[3-(4-methyl-piperidin-1-yl)-propoxy]-quinolin-4-yloxy}-phenyl)-benzenesulfonamide]	0.5 to 3	10 to 25	12.5 to 50	223 to 224	12.5 to 50
COc1cc2c(Oc3ccc(Cl)c(NS(=O)(=O)c4c(Cl)cccc4Cl)c3)ccnc2cc1OCCCN1CCC(C)CC1 [Example 198, 2,6-Dichloro-N-(2-chloro-5-{6-methoxy-7-[3-(4-methyl-piperidin-1-yl)-propoxy]-quinolin-4-yloxy}-phenyl)-benzenesulfonamide]	0.5 to 3	10 to 25	12.5 to 50	206 to 208	12.5 to 50
COc1ccc2nccc(Oc3ccc(NS(=O)(=O)c4cc(F)ccc4F)cc3F)c2c1 [Example 199, 2,5-Difluoro-N-[3-fluoro-4-(6-methoxy-quinolin-4-yloxy)-phenyl]-benzenesulfonamide]	0.5 to 3	10 to 25	12.5 to 50	249 to 250	12.5 to 50
COc1ccc2nccc(Oc3ccc(NS(=O)(=O)c4ccccc4C(F)(F)F)cc3F)c2c1 [Example 201, N-[3-Fluoro-4-(6-methoxy-quinolin-4-yloxy)-phenyl]-2-trifluoromethyl-benzenesulfonamide]	0.5 to 3	10 to 25	12.5 to 50	168 to 169	12.5 to 50
COc1ccc2nccc(Oc3ccc(NS(=O)(=O)c4ccccc4OC(F)(F)F)cc3F)c2c1 [Example 202, N-[3-Fluoro-4-(6-methoxy-quinolin-4-yloxy)-phenyl]-2-trifluoromethoxy-benzenesulfonamide]	0.5 to 3	10 to 25	12.5 to 50	175 to 176	12.5 to 50
COc1cc2c(Oc3ccc(NS(=O)(=O)c4cc(F)ccc4F)cc3OC)ccnc2cc1OCCCN1CCC(C)CC1 [Example 207, 2,5-Difluoro-N-(3-methoxy-4-{6-methoxy-7-[3-(4-methyl-piperidin-1-yl)-propoxy]-quinolin-4-yloxy}-phenyl)-benzenesulfonamide]	0.5 to 3	10 to 25	≤ 12.5	170 to 172	≤ 12.5
COc1cc2c(Oc3ccc(NS(=O)(=O)c4ccccc4C(F)(F)F)cc3OC)ccnc2cc1OCCCN1CCC(C)CC1 [Example 208, N-(3-Methoxy-4-{6-methoxy-7-[3-(4-methyl-piperidin-1-yl)-propoxy]-quinolin-4-yloxy}-phenyl)-2-trifluoromethyl-benzenesulfonamide]	< 0.5	10 to 25	≤ 12.5	216 to 218	12.5 to 50
